According to article PMC10374969, “SVCT2/SLC23A2 is a sodium-dependent urate transporter: functional properties and practical application” (The Journal of Biological Chemistry, 2023):

Assays:
Type in all cases: cell-based
[1] = biological target: T1, mouse Svct2 (Svct2/Slc23a2) (Mus musculus, UniProt Q9EPR4); assay: inhibition of [[…]-14C]-urate uptake into transfected HEK293 cells, mock subtracted
T1 construct: full-length, 648 aa, C-terminal EGFP tag (pEGFP-N1), transiently expressed in HEK293 cells
T1 sequence (Q9EPR4 whole entry): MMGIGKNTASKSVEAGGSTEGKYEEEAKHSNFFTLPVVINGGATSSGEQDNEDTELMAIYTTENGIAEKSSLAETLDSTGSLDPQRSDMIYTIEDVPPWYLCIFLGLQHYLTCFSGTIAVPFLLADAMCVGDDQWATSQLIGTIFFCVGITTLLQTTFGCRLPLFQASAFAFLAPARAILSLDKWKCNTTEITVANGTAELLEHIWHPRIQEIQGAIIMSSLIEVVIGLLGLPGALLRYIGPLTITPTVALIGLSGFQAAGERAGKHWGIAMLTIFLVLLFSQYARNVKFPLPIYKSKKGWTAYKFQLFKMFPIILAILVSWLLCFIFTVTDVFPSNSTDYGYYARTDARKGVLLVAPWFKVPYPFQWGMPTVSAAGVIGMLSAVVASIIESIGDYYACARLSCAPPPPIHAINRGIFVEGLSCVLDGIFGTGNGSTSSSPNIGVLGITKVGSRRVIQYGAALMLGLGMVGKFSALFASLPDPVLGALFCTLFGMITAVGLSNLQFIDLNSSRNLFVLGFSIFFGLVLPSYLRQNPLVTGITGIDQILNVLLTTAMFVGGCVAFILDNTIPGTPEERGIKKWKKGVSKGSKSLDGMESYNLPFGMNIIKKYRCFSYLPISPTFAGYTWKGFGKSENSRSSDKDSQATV

[2] = biological target: T2, human SVCT2 (SVCT2/SLC23A2) (Homo sapiens, UniProt Q9UGH3); assay: as above
T2 construct: full-length wild type, 650 aa, C-terminal EGFP tag (pEGFP-N1), transiently expressed in HEK293 cells
T2 sequence (Q9UGH3 whole entry): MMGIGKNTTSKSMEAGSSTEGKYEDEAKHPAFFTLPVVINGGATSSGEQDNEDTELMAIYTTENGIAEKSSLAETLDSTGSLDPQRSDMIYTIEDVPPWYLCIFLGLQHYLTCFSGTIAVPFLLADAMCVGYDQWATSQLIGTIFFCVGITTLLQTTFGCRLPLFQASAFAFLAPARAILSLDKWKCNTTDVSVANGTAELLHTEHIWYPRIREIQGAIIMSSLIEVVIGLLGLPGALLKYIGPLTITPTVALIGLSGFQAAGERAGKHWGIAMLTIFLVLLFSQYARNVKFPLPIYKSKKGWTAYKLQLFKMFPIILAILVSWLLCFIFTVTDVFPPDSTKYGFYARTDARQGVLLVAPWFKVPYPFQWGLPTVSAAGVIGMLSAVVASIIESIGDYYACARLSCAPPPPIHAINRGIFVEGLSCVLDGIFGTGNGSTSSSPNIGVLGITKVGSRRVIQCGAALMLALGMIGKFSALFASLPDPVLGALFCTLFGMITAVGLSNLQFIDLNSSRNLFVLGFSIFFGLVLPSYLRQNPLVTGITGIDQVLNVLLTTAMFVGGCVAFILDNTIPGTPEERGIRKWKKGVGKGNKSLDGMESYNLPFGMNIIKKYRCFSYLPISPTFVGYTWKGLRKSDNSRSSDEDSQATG

[3] = biological target: T2, human SVCT2 (SVCT2/SLC23A2); assay: inhibition of [[…]-14C]-ascorbate uptake into transfected HEK293 cells

O=C1O[C@H]([C@@H](O)CO)C(O)=C1O [ascorbate]
IC50 [1]: 30.3 µM
IC50 [2]: 36.6 µM

O=c1[nH]c(=O)c2[nH]c(=O)[nH]c2[nH]1 [urate]
inhibition at 500 µM [3]: ~20%
